Legend:
[1] = system: Leukemia Cancer HL60; assay: MTT cytotoxicity assay, HL60; assay type: cell-based; details: Homo sapiens, HL-60, 48 h, read-out: IC50 (µM) ± SEM, Leukemia Cancer HL60
Protocol: (§1) Cytotoxic activities of the synthesized derivatives were screened against leukemia (HL60), liver (HepG2), breast (MCF-7), and lung (A549) cancer cell lines and non-cancerous THLE2 and WISH cells at different concentrations [0.01–100 µM] for 48 h using the MTT assay (Table 1).
(§2) Human promyelocytic leukemia ”HL-60”, human hepatocellular carcinoma “HepG2”, human breast cancer “MCF-7”, human lung cancer “A549” cell lines, and two normal cell lines, THLE-2 as normal adult liver epithelial cells and WISH as normal epithelial cells, were obtained from American Type Culture Collection “Rockville, MD, USA”.
(§3) According to the manufacturer’s protocol, the cells were seeded in 96-well plates at a concentration of 5 × 10^4 cells per well (200 µL). Different concentrations of the tested compounds were used to test the cytotoxicity. […] A non-linear regression of curve fit was used to calculate the IC50.

[2] = system: Breast Cancer MCF-7; assay: MTT cytotoxicity assay, MCF-7; assay type: cell-based; details: Homo sapiens, MCF7, 48 h, read-out: IC50 (µM) ± SEM, Breast Cancer MCF-7
Protocol: as §1, §2, §3

[3] = system: Lung Cancer A549; assay: MTT cytotoxicity assay, A549; assay type: cell-based; details: Homo sapiens, 48 h, read-out: IC50 (µM) ± SEM, Lung Cancer A549
Protocol: as §1, §2, §3

[4] = system: Normal Liver THLE2; assay: MTT cytotoxicity assay, normal THLE2; assay type: cell-based; details: Homo sapiens, THLE-2, 48 h, read-out: IC50 (µM) ± SEM, Normal Liver THLE2
Protocol: as §1, §2, §3

[5] = system: Normal WISH Cells; assay: MTT cytotoxicity assay, normal WISH; assay type: cell-based; details: 48 h, read-out: IC50 (µM) ± SEM, Normal WISH Cells
Protocol: as §1, §2, §3

[6] = system: HepG2 cancer cells; assay: Annexin-V-FITC/PI apoptosis/necrosis flow cytometry, HepG2; assay type: cell-based, human; details: HepG2, IC50 = 13.14 μM, 48 h
Protocol: (See supplementary information for the detailed methodology of flow cytometric analyses, including “FITC/Annexin-V-FITC/PI differential apoptosis/necrosis”, “DNA content-flow cytometry aided cell cycle”, and “Caspase 3/7 green flow cytometry”).
Supplementary materials for detailed methodology
2.2.2.1. Flow cytometric analysis
2.2.2.1.1. FITC/Annexin-V-FITC/PI Differential Apoptosis/Necrosis Assessment Apoptosis and necrosis cell populations are determined using Annexin V-FITC apoptosis detection kit (Abcam Inc., Cambridge Science Park, Cambridge, UK) coupled with 2 fluorescent channels flowcytometry. After treatment with test compounds for 48 h, cells (10^5 cells) are collected by trypsinization and washed twice with ice-cold PBS (pH 7.4). Then, cells are incubated in dark with 0.5 ml of Annexin V-FITC/PI solution for 30 min in dark at room temperature according to manufacturer protocol. After staining, cells are injected via ACEA Novocyte™ flowcytometer (ACEA Biosciences Inc., San Diego, CA, USA) and analyzed for FITC and PI fluorescent signals using FL1 and FL2 signal detector, respectively (λex/em 488/530 […]
nm for FITC and λex/em 535/617 nm for PI). […]
NovoExpress™ software (ACEA Biosciences Inc., San Diego, CA, USA).
2.2.2.1.3. Caspase- 3/7 green flow cytometry assay
The ability of compounds 4 and 9 to induce the enzymatic activities of caspase 3/7 in HL60 and HepG2 respectively were assayed using caspase 3/7 green flow cytometry assay method. Briefly, control and the tested compounds treated cells (2.5x10^5/mL) were rinsed with ice cold PBS, cell lysates were prepared and subsequently protein

[7] = system: p-PI3K and p-Akt in HepG2 cells; assay: Western blotting p-PI3K and p-AKT, HepG2; assay type: cell-based, human; details: HepG2, with respect to control untreated cells
Protocol: Western blotting analysis was conducted using untreated and treated HepG2 and HL60 cells. Cells were washed in PBS and lysed in a boiling sample buffer (62.5 mM Tris-HCl pH 6.8, 1% SDS, 10% glycerol, and 5% β-mercaptoethanol) for sodium dodecyl sulfate polyacrylamide gel electrophoresis (SDS-PAGE). The lysates were boiled for 5 min with a lamellae buffer, and the proteins were separated by SDS-PAGE and transferred to an Immobilon membrane (Millipore, Burlington, MA, USA). After incubation in 5% non-fat dry milk, Tris-HCL, 0.1% Tween 20 for 1 h, p-PI3K, and p-AKT, primary antibodies were added to one of the membranes containing specimen samples and incubated at 4 °C overnight. Appropriate secondary antibodies were incubated for 2 hr at room temperature. After being washed twice n 1× TBS-T, densitometric analysis of the immunoblots was performed to quantify the amounts of p-PI3K and p-AKT against the control sample by total protein normalization using Image analysis software on the ChemiDoc MP imaging system (version 3) produced by Bio-Rad (Hercules, CA, USA).
concentration was measured. Lysates were combined with reaction buffer and
incubated with Caspase 3/7 Detection Reagent (specific colorimetric substrates) at 37
°C for 6 h. The samples were estimated at λ 488 nm in BD FACS Calibur flow
2.2.2.3. […]
the immunoblots was performed to quantify the amounts of p-PI3K and p-AKT against […]

[8] = system: HepG2 cells; assay: Agarose gel electrophoresis DNA fragmentation, HepG2; assay type: cell-based, human

Cc1c(Br)c(=O)oc2c(Br)c(OC(=O)/C=C/c3ccccc3)c(Br)cc12 [Compound 8b, (2E)-3,6,8-Tribromo-4-methyl-2-oxo-2H-chromen-7-yl Cinnamate]
IC50 [1]: 69 ± 2.14 µM
IC50 [2]: 7.35 ± 0.67 µM
IC50 [3]: 4.63 ± 0.16 µM
IC50 [4]: 86.5 ± 2.16 µM
IC50 [5]: 96.8 ± 3.21 µM
Increase of apoptotic cell death versus control [6]: 6.88 fold
Increase of necrosis-mediated cell death versus control [6]: 1.66 fold
Necrosis, cell percentage ([6]; control 0.96%): 1.59%
levels of p-PI3K and p-Akt [7]: effectively suppressed
DNA fragmentation [8]: Loss of intact DNA fragments

Reference: PMC9571264 (Molecules, 2022)
